Test results taken from article PMC6777076 (ACS Omega, 2019).

Biological target: T1, uridine nucleoside ribohydrolase (UNH) (Trichomonas vaginalis, UniProt A2FTT0)
T1 sequence (A2FTT0 1-347): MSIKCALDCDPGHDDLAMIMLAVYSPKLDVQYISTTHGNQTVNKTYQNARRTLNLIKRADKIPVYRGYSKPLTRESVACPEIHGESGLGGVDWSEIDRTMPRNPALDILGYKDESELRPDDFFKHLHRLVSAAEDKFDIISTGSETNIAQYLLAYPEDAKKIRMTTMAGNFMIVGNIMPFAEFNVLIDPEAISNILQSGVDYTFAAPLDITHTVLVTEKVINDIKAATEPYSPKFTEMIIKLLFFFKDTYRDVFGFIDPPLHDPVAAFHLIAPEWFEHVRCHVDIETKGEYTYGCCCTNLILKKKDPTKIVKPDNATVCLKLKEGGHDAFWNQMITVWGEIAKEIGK
Assay: 19F NMR-based activity assay
Type: biochemical
Conditions: from UNH potency and heavy atom count

SMILES | LE (ligand efficiency)
CSc1nc2ccccc2[nH]1 [2-methylthiobenzimidazole] | 0.53
COc1ccc2[nH]c([S+]([O-])Cc3ncc(C)c(OC)c3C)nc2c1 (centres unmarked) [omeprazole] | 0.36
